Assay [1] addresses T1, Hypocrates (NemR-cpYFP biosensor) (Escherichia coli, UniProt P67430, C21S/C98S/C116S/C149S/C153S/K175A, form not given).
T1 construct: cpYFP (from HyPer-2) inserted with SAG/GT linkers into flexible loop of NemR^C106; pQE30; with Green fluorescent protein (circularly permuted yellow variant, cpYFP)
Briefly: fluorescence excitation spectra in E. coli cells expressing the sensor. The format is cell-based. Conditions: HypocratesKA; 80 µM oxidant; PBS pH 7.4.

The target in assay [2] is T2, Hypocrates (NemR-cpYFP biosensor) (Escherichia coli, UniProt P67430, C21S/C98S/C116S/C149S/C153S, form not given).
T2 construct: cpYFP (from HyPer-2) inserted with SAG/GT linkers into flexible loop of NemR^C106; pQE30; with Green fluorescent protein (circularly permuted yellow variant, cpYFP)
T2 sequence (P67430 whole entry C21S/C98S/C116S/C149S/C153S, form open): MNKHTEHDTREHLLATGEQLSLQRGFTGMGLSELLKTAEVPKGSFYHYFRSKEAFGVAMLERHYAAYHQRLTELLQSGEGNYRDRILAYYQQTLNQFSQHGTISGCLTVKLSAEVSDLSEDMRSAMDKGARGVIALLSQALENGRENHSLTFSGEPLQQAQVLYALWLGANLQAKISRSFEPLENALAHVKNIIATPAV
Kind of assay: stopped-flow, cpYFP fluorescence (λex […] nm). The format is binding. Conditions: covalent (oxidation, chlorination); 100 mM sodium phosphate pH 7.4, 25 °C; 0.5 µM protein.

Assay [3] addresses T3, NemR^C106 (Escherichia coli, UniProt P67430, C21S/C98S/C116S/C149S/C153S).
T3 construct: pET-21b(+) in E. coli BL21 (DE3); Ni-Sepharose purified; DTT-reduced before assay; NemR homo-dimer
Briefly: stopped-flow, intrinsic Trp fluorescence. The format is binding. Conditions: covalent (oxidation); 100 mM sodium phosphate pH 7.4, 25 °C; 1 µM protein.

The target in assay [4] is T4, Hypocrates (NemR-cpYFP biosensor) (Escherichia coli, UniProt P67430, C21S/C98S/C106S/C116S/C149S/C153S, form not given).
T4 construct: cpYFP (from HyPer-2) inserted with SAG/GT linkers into flexible loop of NemR^C106; pQE30; with Green fluorescent protein (circularly permuted yellow variant, cpYFP)
T4 sequence (P67430 whole entry C21S/C98S/C106S/C116S/C149S/C153S, form open): as the sequence (P67430 whole entry C21S/C98S/C116S/C149S/C153S, form open) above, with C106S counted along it
Kind of assay: fluorescence excitation spectra in E. coli cells expressing the sensor. The format is cell-based. To be noted: HypocratesCS, key Cys replaced; 80 µM oxidant; PBS pH 7.4.

Assay [5] deals with T3, NemR^C106. Briefly: intrinsic Trp fluorescence shift. Conditions: covalent (oxidation); 2 µM protein, 50 µM oxidant; 100 mM sodium phosphate pH 7.4. The format is binding.
Assay [6] has as its target T2, Hypocrates (NemR-cpYFP biosensor). Kind of assay: fluorescence titration, Ex500/Ex417 ratio. The format is binding. Conditions: covalent (oxidation); 100 mM sodium phosphate pH 7.4, 25 °C; 0.5 µM protein.
Assay [7] has as its target Hypocrates (NemR-cpYFP biosensor) (E. coli). Briefly: SEC; Superdex 200 Increase 10/300 GL, 100 mM sodium phosphate buffer pH 7.4, 24 °C, 0.75 ml/min; samples incubated with 5 mM DTT or with N-chlorotaurine at 1:20 protein/oxidant ratio for 5 min before injection; absorbance at 415 nm; column calibrated with mass standards.

T3 sequence (P67430 whole entry C21S/C98S/C116S/C149S/C153S): as the sequence (P67430 whole entry C21S/C98S/C116S/C149S/C153S, form open) above
T1 sequence (P67430 whole entry C21S/C98S/C116S/C149S/C153S/K175A, form open): as the sequence (P67430 whole entry C21S/C98S/C116S/C149S/C153S, form open) above, with K175A counted along it

For `OCl` [NaOCl], the “fluorescence excitation spectra in E. coli cells expressing the sensor” value in assay [1] was “we found that HypocratesKA is still highly sensitive to NaOCl (Fig. 1i)”. The “second-order rate constant (kon)” value in assay [2] is “(1.4 ± 0.056) × 10^6 M^−1s^−1”. The second-order rate constant on NemR^C106 [3] is ~ 3.0 × 10^5 M^−1s^−1. In assay [4], the no response entry was “E. coli cells expressing HypocratesCS did not respond anymore to the addition of NaOCl”.
As for `OBr` [NaOBr], the “intrinsic Trp fluorescence shift” value at NemR^C106 [5] was “The oxidants NaOCl, NCT, and NaOBr caused Trp-fluorescence shifts”.
Consider `N#CSO` [HOSCN], for which the “sensitivity (slope of initial linear part)” value in assay [6] is listed as ~ 1.11 µM^−1.
As for Hypocrates (NemR-cpYFP biosensor), the stoichiometry N – broadly, the number of molecules, sites or subunits per partner or assembly – in assay [7] was 2.

The values are drawn from PMC8748444, “Hypocrates is a genetically encoded fluorescent biosensor for (pseudo)hypohalous acids and their derivatives” (Nature Communications, 2022).
